IC50 and solubility data for 16 compounds are collected here from patent US20220380319A1 (Bial - R&D Investments, S.A., priority 2019, published 2022).

Converted amounts (≈) assume the structure as drawn.

For one data set, the target named is T1, acid ceramidase (Homo sapiens, UniProt Q13510).
T1 construct: Cell lysates overexpressing acid ceramidase were used as the enzyme source; expressed in transfected cells
T1 sequence (Q13510 22-395): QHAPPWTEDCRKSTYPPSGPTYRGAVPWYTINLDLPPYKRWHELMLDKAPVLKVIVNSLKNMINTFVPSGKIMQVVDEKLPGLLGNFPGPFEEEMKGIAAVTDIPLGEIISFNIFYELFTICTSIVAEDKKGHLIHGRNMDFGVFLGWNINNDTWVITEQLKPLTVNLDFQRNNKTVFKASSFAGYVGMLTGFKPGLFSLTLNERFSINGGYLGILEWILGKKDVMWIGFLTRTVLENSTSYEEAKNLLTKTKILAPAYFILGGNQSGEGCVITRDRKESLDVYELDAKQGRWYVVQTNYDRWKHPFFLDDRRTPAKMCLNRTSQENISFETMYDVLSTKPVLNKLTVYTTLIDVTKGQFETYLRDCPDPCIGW
As to the kind of experiment: Acid ceramidase inhibition, biochemical fluorescent assay with cell lysates overexpressing acid ceramidase, substrate Rbm14-12. The note with it: substrate Rbm14-12 6.3 μM, pH 4.5, 1 hr preincubation at RT. The procedure:
The ability of exemplary compounds to inhibit acid ceramidase was measured.
Cell lysates overexpressing acid ceramidase were used as the enzyme source for compound potency determination in a biochemical fluorescent assay. Briefly, compounds were preincubated with 10 μg protein of cell lysates in a dose-response manner for 1 hr at RT in the assay buffer containing 25 mM NaAC and 100 mM NaCl, pH 4.5. The reaction was initiated by the addition of substrate Rbm14-12 at a final concentration of 6.3 μM. The reaction was run at RT for 1 hr before it was stopped by the addition of the stopping buffer containing 20% methanol (v/v), 1 mg/ml NaIO4, 0.1 M glycine, pH 10.6. The samples were incubated with the stopping buffer at RT for 1 hr to allow the fluorescent product to be formed. Finally, the plate was read with SpectraMax i3 plate reader (Molecular Devices) at ex360 nm and em446 nm. Data were collected and used to determine the IC50 values of compounds by curve fitting to the four-parameter inhibition equation.

Data set [1] can be described thus: Compound solubility in water.

`O=C(NCCc1ccccc1)n1cnc2cnccc21` [Example 20, N-Phenethyl-1H-imidazo[4,5-c]pyridine-1-carboxamide]: the IC50 against acid ceramidase was less than 200 nM. In data set [1], this compound came in with a solubility of 5.3 µg/mL (≈ 19.9 µM).
The compound `O=C(NCCc1ccccc1)n1cnc2ccncc21` [Example 21, N-Phenethyl-3H-imidazo[4,5-c]pyridine-3-carboxamide] yielded an IC50 against acid ceramidase of less than 200 nM. The compound also displayed a solubility in data set [1] of 4.3 µg/mL (≈ 16.1 µM).
The compound `O=C(NCCc1cccnc1)n1cnc2ccccc21` [Example 22, N-(2-(Pyridin-3-yl)ethyl)-1H-benzo[d]imidazole-1-carboxamide] registered an IC50 against acid ceramidase of 200 to 1000 nM. In data set [1], this compound gave a solubility of 12.9 µg/mL (≈ 48.4 µM).
For the compound `CCCCCNC(=O)n1cnc2ccccc21` [Example 23, N-Pentyl-1H-benzo[d]imidazole-1-carboxamide], on acid ceramidase, the IC50 is less than 200 nM. The compound further showed a solubility in data set [1] of 13.3 µg/mL (≈ 57.5 µM).
`CCCCNC(=O)n1cnc2ccccc21` [Example 24, N-Butyl-1H-benzo[d]imidazole-1-carboxamide]: the IC50 at acid ceramidase is less than 200 nM. The solubility in data set [1] was 21.9 µg/mL (≈ 101 µM).
Regarding `COc1ccc2c(c1)ncn2C(=O)NCCc1ccccc1` [Example 25a, 5-Methoxy-N-phenethyl-1H-benzo[d]imidazole-1-carboxamide], the IC50 against acid ceramidase is less than 200 nM. Further, the solubility in data set [1] was determined as 2.6 µg/mL (≈ 8.8 µM).
`COc1ccc2ncn(C(=O)NCCc3ccccc3)c2c1` [Example 25b, 6-methoxy-N-phenethyl-1H-benzo[d]imidazole-1-carboxamide] showed an IC50 on acid ceramidase of less than 200 nM. In addition, in data set [1], the solubility turned out to be 15 µg/mL (≈ 50.8 µM).
In the same order, the values of `O=C(NCCc1ccccc1)n1cnc2cc(C(F)(F)F)ccc21` [Example 26a, N-Phenethyl-5-(trifluoromethyl)-1H-benzo[d]imidazole-1-carboxamide] are less than 200 nM and 0.5 µg/mL (≈ 1.5 µM).
On to `O=C(NCCc1ccccc1)n1cnc2ccc(C(F)(F)F)cc21` [Example 26b, N-phenethyl-6-(trifluoromethyl)-1H-benzo[d]imidazole-1-carboxamide], for which, at acid ceramidase, the IC50 was less than 200 nM. Moreover, in data set [1], the solubility stood at 2.6 µg/mL (≈ 7.8 µM).
In turn, `COc1cccc2c1ncn2C(=O)NCCc1ccccc1` [Example 27, 4-Methoxy-N-phenethyl-1H-benzo[d]imidazole-1-carboxamide] showed an IC50 against acid ceramidase of less than 200 nM. In data set [1], this compound had a solubility of 7.8 µg/mL (≈ 26.4 µM).
In the same order, the values of `COc1nc2cc(N3CCOCC3)ccc2n1C(=O)NCCc1ccccc1` [Example 29b, 2-methoxy-5-morpholino-N-phenethyl-1H-benzo[d]imidazole-1-carboxamide] are 200 to 1000 nM and 3.6 µg/mL (≈ 9.46 µM).
On to `COc1nc2cc(-c3cccnc3)ccc2n1C(=O)NCCc1ccccc1` [Example 30a, 2-Methoxy-N-phenethyl-5-(pyridin-3-yl)-1H-benzo[d]imidazole-1-carboxamide], for which the IC50 against acid ceramidase was less than 200 nM. In addition, the concentration in solution in data set [1] (solubility) came to 1.6 µg/mL (≈ 4.3 µM).
`COc1nc2ccc(-c3cccnc3)cc2n1C(=O)NCCc1ccccc1` [Example 30b, 2-methoxy-N-phenethyl-6-(pyridin-3-yl)-1H-benzo[d]imidazole-1-carboxamide] registered an IC50 at acid ceramidase of less than 200 nM. The compound further came in with a solubility in data set [1] of 3.9 µg/mL (≈ 10.5 µM).
`COc1nc2ccc(-c3cncnc3)cc2n1C(=O)NCCc1ccccc1` [Example 31a, 2-Methoxy-N-phenethyl-6-(pyrimidin-5-yl)-1H-benzo[d]imidazole-1-carboxamide]: the half-inhibitory concentration (IC50) on acid ceramidase was less than 200 nM. Also, the concentration in solution in data set [1] (solubility) was 7.1 µg/mL (≈ 19 µM).
In the same order, the values of `COc1nc2cc(-c3cncnc3)ccc2n1C(=O)NCCc1ccccc1` [Example 31b, 2-methoxy-N-phenethyl-5-(pyrimidin-5-yl)-1H-benzo[d]imidazole-1-carboxamide] are less than 200 nM and 8.6 µg/mL (≈ 23 µM).
Compound `Cn1c(=O)n(C(=O)NCCc2ccccc2)c2cc(-c3cncnc3)ccc21` [Example 32a, 3-Methyl-2-oxo-N-phenethyl-6-(pyrimidin-5-yl)-2,3-dihydro-1H-benzo[d]imidazole-1-carboxamide] registered an IC50 at acid ceramidase of more than 1000 nM. This compound came in with a solubility in data set [1] of 0.9 µg/mL (≈ 2.41 µM).

As usually defined, the IC50 is the midpoint of a concentration-inhibition curve. A higher IC50 goes with weaker potency. One may read the solubility as the dissolved amount per volume that the medium holds. Read a high solubility as a readily soluble substance.
